Nine molecules from patent US9452988B2, “Bendamustine derivatives and methods of using same” (Ignyta, Inc., priority 2012, dated 2016) can be followed below.

The structures appear in SMILES notation. pIC50: −log10 of the molar value.

Data set [1] in a line: Rat plasma pharmacokinetics, solution formulations of C16, cyclohexyl and 5-decanyl esters, 3 mg-eq/kg i.v. In kind it is in vivo. Conditions: solution formulation 3 mg-eq/kg i.v.
Protocol: (§2) Plasma and other tissues were prepared for high performance liquid chromatography (HPLC)/mass spectrometric analysis according to a standard protocol following protein precipitation with acetonitrile containing an internal standard. The samples were then analyzed for both bendamustine HCl and bendamustine esters of the invention and alprenolol (internal standard) via HPLC coupled with tandem mass spectrometry. Tissue samples were homogenized in sodium phosphate buffer and the value obtained from the assay was multiplied by 3 to correct for dilution during processing.
(§3) Adult animals (Charles River, Kingston, N.Y.; n=3 or 4/time point) were used in all experiments. The mice or rats were not fasted overnight prior to IV dose administration via the lateral tail vein. IV doses were administered in a fixed dose volume of 100 μL in mice or a dose volume of 1 mL/kg in rats. The mice were sacrificed by decapitation and trunk blood was collected into heparinized tubes at the sampling times stipulated. For blood collection, each rat (unanesthetized) was placed in a clear Plexiglas® restraining tube, and blood samples (approximately 0.25 mL) were drawn from a lateral tail vein into heparinized collection tubes at the sampling times stipulated. (Note: No pre-dose samples were obtained.) The exception to this procedure was the last sampling time in which the rats were sacrificed by decapitation and trunk blood was obtained rather than blood via a tail vein. The blood samples were placed on wet ice until centrifuged to separate plasma. The plasma fraction was transferred into clean, dry tubes, frozen on dry ice and stored at approximately −20° C. pending analysis. Whole brains and other highly perfused organs (liver, lung, spleen, kidney and heart) were rapidly removed at the predetermined time points and frozen on dry ice. All tissue samples were also stored at approximately −20° C. pending analysis.
(§4) The plasma concentration data for all mice and rats were entered into Excel spreadsheets in preparation for pharmacokinetic analysis. Mean pharmacokinetic parameters were estimated by non-compartmental analysis (Gibaldi and Perrier 1982) of the plasma concentration versus time data using WinNonlin software (Professional Version 4.1, Pharsight Corporation, Palo Alto, Calif.). The terminal rate constant for elimination from plasma (β) was estimated by linear regression of the terminal portion of the semi-logarithmic plasma concentration versus time curve. The apparent terminal half-life (t1/2) was calculated as 0.693 divided by β. The area under the plasma concentration versus time curve from time zero to the time of the last measurable concentration (AUC0-t) after a single dose was determined by the linear trapezoidal rule. The area from zero to infinity (AUC0-∞) was calculated as the sum of AUC0-t and the area extrapolated from the last measurable concentration to infinity (Clast/β). Concentrations pre-dose were all assumed to be zero for the purpose of calculation of the AUC. Any concentration that was below the limit of quantification (BLQ) after the last quantifiable sampling time was considered to be an empty value for the purpose of calculation of the AUC; it was treated as zero for the calculation of the mean concentration for a given sampling time.
The test system of the next data set is H-460 (NSCLC). Kind of data set: MTS cell assay, H-460. In kind it is cell-based, Human. The method, then:
(§1) Human carcinoma cells (2,000 cells/well) were incubated with the desired concentration of the test molecule (0-200 μM) for 72 hours. The cells were then incubated with MTS solution (Promega) for 1-2 hours, and the compounds effects on cell proliferation was determined by measuring the absorbance at 490 nm. Cell growth was expressed as a percent of the appropriate control (placebo). […] All data reported was the mean±SE of three independent experiments.

Data set [2] is described as follows: Rat plasma, blood and organ pharmacokinetics after bendamustine C12 ester 30 mg/kg i.v. It counts as in vivo. The conditions noted are these: 1 mL/kg.
Protocol: as §2, §3, §4
For the next data set, the system named is MB-231 (HBC). Kind of data set: MTS cell assay, MB-231. In kind it is cell-based, Human. Conditions: 72 hours. The method, then: Charles River Labs athymic nude mice bearing MDA-MB-231 breast carcinoma cell line subcutaneous xenografts (5×10^6 cells in matrigel) were sacrificed to make a tumor isolate. Using sterile instruments and working aseptically, the tumors were removed from the euthanized animal. The tumor was placed in a 50 mL sterile conical tube and 5 mL of trypsin was added. The tumor was cut into small pieces and incubated at 37° C. for 30 minutes. After incubation, a cell strainer was placed on a second, sterile, 50 mL conical tube and the contents of the first tube were placed in the cell strainer. The tissue was forced through the filter using the flat end of a syringe plunger. The cell strainer was washed with 5 mLs of media containing FBS. The cells were spun down and the supernatant was discarded. The cells were resuspended in 20 mLs of complete media containing P/S and placed in a 75 cm flask.
as §1
On the technique in general: Tetrazolium assays rely on reduction of a dye to a coloured formazan, in cell work by metabolically active cells.

Where [3] appears, read: C12 ester Nanoparticle Formulation.
Setting [4] is: Homo sapiens, NCI-H460, 72 hours.

`CCCCCC(CCCC)OC(=O)CCCc1nc2cc(N(CCCl)CCCl)ccc2n1C` (stereo not drawn) [5-decanyl ester, 4-{5-[Bis-(chloroethyl)-amino]-1-methyl-1H-benzimidazol-2-yl}butyric acid 5-decyl ester]: the “Plasma levels of Ester” value in data set [1] is “All < MQL”.
One may read the pIC50 as −log10 of the IC50, conventionally taken in molar units. Lower therefore signals a high IC50. Take `CCCCCCCCCCCCOC(=O)CCCc1nc2cc(N(CCCl)CCCl)ccc2n1C` [Bendamustine C12 Ester, 4-{5-[Bis-(chloroethyl)-amino]-1-methyl-1H-benzimidazol-2-yl}butyric aid dodecyl ester]: in the data set with H-460 (NSCLC) (72 hours), the negative-log IC50 (pIC50) is 4.54. In data set [2] (C12 ester Liquid Formulation), the “AUC0-t of C12 Ester, Blood” value was 4424 ng·h/mL; the “AUC0-t of C12 Ester, Brain” value turned out to be 299 ng·h/mL; the “AUC0-t of C12 Ester, Kidney” value is 2383 ng·h/mL; the “AUC0-t of C12 Ester, Liver” value worked out at 2564 ng·h/mL. In data set [2] (C12 ester Liquid Formulation), the “AUC0-t of C12 Ester, Lung” value is 12619 ng·h/mL; the “AUC0-t of C12 Ester, Spleen” value came to 25874 ng·h/mL; the “AUC0-∞ of C12 Ester, Kidney” value turned out to be 2605 ng·h/mL; the “AUC0-∞ of C12 Ester, Liver” value worked out at 2586 ng·h/mL. Moreover, in data set [2] (C12 ester Liquid Formulation), the “AUC0-∞ of C12 Ester, Lung” value worked out at 13246 ng·h/mL; the “AUC0-∞ of C12 Ester, Spleen” value turned out to be 25927 ng·h/mL; the “t1/2 of C12 Ester, Kidney” value is recorded as 5.3 h; the “t1/2 of C12 Ester, Liver” value was determined as 0.8 h. In data set [2] (C12 ester Liquid Formulation), the “t1/2 of C12 Ester, Lung” value worked out at 7.6 h and the “t1/2 of C12 Ester, Spleen” value came to 3.1 h. In data set [2] (setting [3]), the “AUC0-t of C12 Ester, Blood” value was 951 ng·h/mL; the “AUC0-t of C12 Ester, Brain” value amounted to 149 ng·h/mL; the “AUC0-t of C12 Ester, Kidney” value turned out to be 1766 ng·h/mL; the “AUC0-t of C12 Ester, Liver” value came to 13355 ng·h/mL. Moreover, in data set [2] (setting [3]), the “AUC0-t of C12 Ester, Lung” value was 28327 ng·h/mL; the “AUC0-t of C12 Ester, Spleen” value was 13111 ng·h/mL; the “AUC0-∞ of C12 Ester, Kidney” value is 1802 ng·h/mL; the “AUC0-∞ of C12 Ester, Liver” value is 13586 ng·h/mL. Further, in data set [2] (setting [3]), the “AUC0-∞ of C12 Ester, Lung” value was 32297 ng·h/mL; the “AUC0-∞ of C12 Ester, Spleen” value was 13578 ng·h/mL; the “t1/2 of C12 Ester, Kidney” value was 4.9 h; the “t1/2 of C12 Ester, Liver” value is listed as 4.5 h. For the same molecule, in data set [2] (setting [3]), the “t1/2 of C12 Ester, Lung” value was found to be 8.5 h and the “t1/2 of C12 Ester, Spleen” value amounted to 5.4 h. The molecule also showed a pIC50 in the data set with MB-231 (HBC) of 4.48.
Broadly, the Vd is a proportionality between amount in the body and measured concentration, not a real space. Take `CCCCCCCCCCCCCCCCOC(=O)CCCc1nc2cc(N(CCCl)CCCl)ccc2n1C` [C16 bendamustine ester, 4-{5-[Bis-(chloroethyl)-amino]-1-methyl-1H-benzimidazol-2-yl}butyric acid hexadecyl ester]: the pIC50 with H-460 (NSCLC) (setting [4]) is 4.11; in the data set on MB-231 (HBC) (Homo sapiens) it was under 3.70. Besides, in data set [1] (plasma, iv, 3 mg/kg, Mean n = 3, read-out: AUC0-t of Ester in plasma), the AUC(0-t) is 1210 ng·h/mL. In addition, the AUC(0-inf) in data set [1] (plasma, iv, 3 mg/kg, Mean n = 3, read-out: AUC0-∞ of Ester in plasma) came out at 1210 ng·h/mL. For the same molecule, the clearance in data set [1] (plasma, iv, 3 mg/kg, Mean n = 3, read-out: CL of Ester) came out at 41 mL/min/kg. The Vd in data set [1] (plasma, iv, 3 mg/kg, Mean n = 3, read-out: Vd of Ester) was 1 L/kg. For the same molecule, the half-life in data set [1] (plasma, iv, 3 mg/kg, Mean n = 3, read-out: t1/2 of Ester in plasma (converted)) was 0.28 h.
For `Cn1c(CCCC(=O)OC2CCCCC2)nc2cc(N(CCCl)CCCl)ccc21` [Cy-hexyl bendamustine ester, 4-{5-[Bis-(chloroethyl)-amino]-1-methyl-1H-benzimidazol-2-yl}butyric acid cyclohexyl ester], in data set [1], the “Plasma levels of Ester” value is listed as “All < MQL”.
As for `CCCCOC(=O)CCCc1nc2cc(N(CCCl)CCCl)ccc2n1C` [—C4H9, 4-{5-[Bis-(chloroethyl)-amino]-1-methyl-1H-benzimidazol-2-yl}butyric acid butyl ester], the pIC50 in the data set with H-460 (NSCLC) (setting [4]) was 4.80; in the data set on MB-231 (HBC) (Homo sapiens), 4.88.
For the molecule `CCCCCCOC(=O)CCCc1nc2cc(N(CCCl)CCCl)ccc2n1C` [—C6H13, 4-{5-[Bis-(chloroethyl)-amino]-1-methyl-1H-benzimidazol-2-yl}butyric acid hexyl ester], the negative-log IC50 (pIC50) was 5.13 in the data set on H-460 (NSCLC) (setting [4]) and 4.36 in the data set on MB-231 (HBC) (Homo sapiens).
In the data set on H-460 (NSCLC) (72 hours), `CCCCCCCCOC(=O)CCCc1nc2cc(N(CCCl)CCCl)ccc2n1C` [—C8H17, 4-{5-[Bis-(chloroethyl)-amino]-1-methyl-1H-benzimidazol-2-yl}butyric aid octyl ester] gave a pIC50 of 4.31.
With `CCCCCCCCCCOC(=O)CCCc1nc2cc(N(CCCl)CCCl)ccc2n1C` [—C10H21, 4-{5-[Bis-(chloroethyl)-amino]-1-methyl-1H-benzimidazol-2-yl}butyric acid decyl ester], the pIC50 was 4.62 in the data set with H-460 (NSCLC) (setting [4]) and 4.41 with MB-231 (HBC) (Homo sapiens).
The matching figures for `CCCCCCCCCCCCCCCOC(=O)CCCc1nc2cc(N(CCCl)CCCl)ccc2n1C` [—C15H31, 4-{5-[Bis-(chloroethyl)-amino]-1-methyl-1H-benzimidazol-2-yl}butyric acid pentadecyl ester]: under 3.70 and under 3.70.
